Here are results for eleven molecules from paper PMC3388857, “Synthesis and antiviral activities of spacer-linked 1-thioglucuronide analogues of glycyrrhizin” (Beilstein Journal of Organic Chemistry, 2012).

The nature of one data set: in vitro. The conditions noted are these: dog, CC50 (cytotoxic concentration 50%), compound-treated uninfected MDCK cells, 48 h, cell viability.
In another data set the test system is influenza A H3N2 virus. Nature of the data set: Antiviral activity in influenza A virus-infected MDCK cells (prevention of virus-induced cytopathicity, CellTiter-Glo, 48 h). Format: cell-based, influenza A virus A/Aichi/2/68 (H3N2). The conditions noted are these: for IC50: Influenza A virus, H3N2, MDCK, 48 h, MDCK cells infected with influenza A H3N2, MOI 0.05, compound added with virus, read-out: IC50 (half-maximal inhibitory concentration, antiviral activity); for fold more active compared to GL: ratio of antiviral IC50 values versus lead compound GL; for antiviral activity (in words): influenza A H3N2-infected MDCK cells, up to 250 µM. The protocol:
For biological testing the compounds were dissolved in DMSO and diluted in cell culture medium to a maximum final DMSO concentration of 1%. For determination of the cytotoxicity of the compounds, MDCK cells were treated with compound concentrations ranging from 3.1 µM to 250 µM for 48 h and then cell viability was determined as a surrogate endpoint for cytotoxicity. […] GL was not toxic at 2500 µM (Table 1). The antiviral activity of the compounds was determined by infecting MDCK cells with influenza A H3N2 virus and treating them with different concentrations of compounds at the same time. […] Compound 16 containing only the N-succinyl substituent is a close analogue to CBX bearing an amide instead of the ester group. […] This was further supported by the data obtained with compound 23 containing a 1-thioethyl-linked glucuronic acid residue at position 3 of 1,2-dehydro-glycyrrhetinic acid.
The influenza A virus (IAV) was obtained from American Tissue Culture Collection (A/Aichi/2/68 (H3N2); VR-547). Virus stocks were prepared by propagation of virus on Mardin-Darby canine kidney (MDCK; ATCC CCL-34) cells and infectious titers of virus stocks were determined by the 50% tissue culture infective dose (TCID50) analysis as described in [5].
MDCK cells were seeded in 96-well plates at 2×10^4 cells/well using DMEM/Ham’s F-12 (1:1) medium containing 10% foetal bovine serum (FBS), 2 mM L-glutamine and 1% antibiotic– antimycotic solution (penicillin, 10.000 units/mL; streptomycin, sulfate 10 mg/mL; Amphotericin B, 25 µg/ml) (all from PAA). Until infection the cells were incubated for 5 h at 37 °C/5.0% CO2 to form a ~80% confluent monolayer on the bottom of the well. Test compounds were dissolved in DMSO and dilution series were prepared in infection medium (DMEM/Ham’s F-12 (1:1) containing 5 µg/mL trypsin (Sigma T4945), and 1% antibiotic–antimycotic solution) resulting in a final plate well DMSO concentration of 1%. The virus stock was generally diluted in infection medium (DMEM/Ham’s F-12 (1:1) containing 5 µg/mL trypsin, 1% DMSO, and 1% antibiotics) to a theoretical multiplicity of infection (MOI) of 0.05. After removal of the culture medium and one washing step with PBS, the virus and compound solution were added together to the cells. In the wells used for cytotoxicity determination (uninfected cells), the virus suspension was replaced by infection medium. Each treatment was conducted in two replicates. After incubation at 37 °C, […]
formation, or other notable abnormalities. Then, cell viability was determined by using CellTiter-Glo luminescent cell viability assay (Promega). The supernatant was removed carefully and 65 µL of the reconstituted reagent was added to each well and incubated for 15 min at room temperature under gentle shaking. Then, 60 µL of the solution was transferred to an opaque plate and luminescence (RLU) was measured by using a Synergy HT plate reader (Biotek). The […]
compounds were titrated on virus-infected MDCK cells and the response (RLU) was used to determine the IC50 value by using a 4-parameter logistic equation (GraphPad Prism) whereby the top and bottom of the curve were defined by the response (RLU) of untreated uninfected cells and untreated infected cells, respectively. The cytotoxicity of the compounds was determined by titration on uninfected MDCK cells, and the response (RLU) was used to determine the CC50 value by using a 4-parameter logistic equation whereby the top of the curve was defined by the response (RLU) of untreated uninfected cells. […]
(Protection from cytopathic effect is a common read-out in antiviral testing.)

The next data set concerns MDCK cells. The conditions noted are these: uninfected MDCK cells, 3.1 µM to 250 µM, 48 h.

Consider `COC(=O)[C@H]1O[C@@H](SCCN[C@H]2CC[C@@]3(C)C(CC[C@]4(C)C3C(=O)C=C3[C@@H]5C[C@@](C)(C(=O)O)CC[C@]5(C)CC[C@]34C)C2(C)C)[C@H](O)[C@@H](O)[C@@H]1O` (some centres unmarked) [Compound 12], for which, in “in vitro”, the 50% cytotoxic concentration (CC50) was > 250 µM. In addition, in the data set with influenza A H3N2 virus, the IC50 was 220 ± 41 µM and the “fold more active compared to GL” value is given as 4.7 fold.
In the case of `COC(=O)CCC(=O)N(CCS[C@@H]1O[C@H](C(=O)OC)[C@@H](O)[C@H](O)[C@H]1O)[C@H]1CC[C@@]2(C)C(CC[C@]3(C)C2C(=O)C=C2[C@@H]4C[C@@](C)(C(=O)O)CC[C@]4(C)CC[C@]23C)C1(C)C` (some centres unmarked) [Compound 18], the CC50 in the data set “in vitro” was > 250 µM. Besides, in the data set on influenza A H3N2 virus, the IC50 amounted to 125 ± 15.9 µM and the “fold more active compared to GL” value was found to be 8 fold.
For `CC(=O)N(CCS[C@@H]1O[C@H](C(=O)O)[C@@H](O)[C@H](O)[C@H]1O)[C@H]1CC[C@@]2(C)C(CC[C@]3(C)C2C(=O)C=C2[C@@H]4C[C@@](C)(C(=O)O)CC[C@]4(C)CC[C@]23C)C1(C)C` (some centres unmarked) [Compound 15], the CC50 in “in vitro” was > 250 µM. Besides, in the data set on influenza A H3N2 virus, the IC50 came out at 87 ± 7.9 µM and the “antiviral activity (in words)” value was “IC50 value in the same range as the methyl ester 14”.
Regarding `CC1(C)C2CC[C@]3(C)C(C(=O)C=C4[C@@H]5C[C@@](C)(C(=O)O)CC[C@]5(C)CC[C@]43C)[C@@]2(C)CC[C@@H]1N(CCS[C@@H]1O[C@H](C(=O)O)[C@@H](O)[C@H](O)[C@H]1O)C(=O)CCC(=O)O` (some centres unmarked) [Compound 19], the CC50 in the data set “in vitro” was > 250 µM. Besides, the IC50 in the data set on influenza A H3N2 virus was > 250 µM.
In the data set “in vitro”, `CC1(C)[C@@H](O)CC[C@]2(C)[C@H]3C(=O)C=C4[C@@H]5C[C@@](C)(C(=O)O)CC[C@]5(C)CC[C@@]4(C)[C@]3(C)CC[C@@H]12` [GA, glycyrrhetinic acid, reference compound] registered a CC50 of 7.4 ± 0.05 µM. Also, in the data set on influenza A H3N2 virus, the “antiviral activity (in words)” value is reported as “did not show any antiviral activity at nontoxic concentrations”.
Turning to `CC1(C)C2CC[C@]3(C)C(C(=O)C=C4[C@@H]5C[C@@](C)(C(=O)O)CC[C@]5(C)CC[C@]43C)[C@@]2(C)CC[C@@H]1NCCS[C@@H]1O[C@H](C(=O)O)[C@@H](O)[C@H](O)[C@H]1O` (some centres unmarked) [Compound 13], the CC50 in “in vitro” was > 250 µM. In addition, the IC50 in the data set with influenza A H3N2 virus is > 250 µM.
Consider `CC1(C)[C@@H](O[C@H]2O[C@H](C(=O)O)[C@@H](O)[C@H](O)[C@H]2O[C@@H]2O[C@H](C(=O)O)[C@@H](O)[C@H](O)[C@H]2O)CC[C@]2(C)[C@H]3C(=O)C=C4[C@@H]5C[C@@](C)(C(=O)O)CC[C@]5(C)CC[C@@]4(C)[C@]3(C)CC[C@@H]12` [GL, glycyrrhizin], for which the CC50 in the data set “in vitro” is > 2500 µM. The IC50 with influenza A H3N2 virus was 1030 ± 181 µM.
Consider `COC(=O)[C@H]1O[C@@H](SCCN(C(C)=O)[C@H]2CC[C@@]3(C)C(CC[C@]4(C)C3C(=O)C=C3[C@@H]5C[C@@](C)(C(=O)O)CC[C@]5(C)CC[C@]34C)C2(C)C)[C@H](O)[C@@H](O)[C@@H]1O` (some centres unmarked) [Compound 14], for which, in the data set with influenza A H3N2 virus, the IC50 stood at 72.1 µM and the “fold more active compared to GL” value is listed as “approximately 14 fold”.
On to `CC1(C)C2CC[C@]3(C)C(C(=O)C=C4[C@@H]5C[C@@](C)(C(=O)O)CC[C@]5(C)CC[C@]43C)[C@@]2(C)CC[C@@H]1NC(=O)CCC(=O)O` (some centres unmarked) [Compound 16, reference compound], for which the “cytotoxicity (in words)” value in the data set on MDCK cells was “not toxic”. Further, in the data set “in vitro”, the CC50 is > 250 µM. In the data set on influenza A H3N2 virus, the IC50 is > 250 µM and the “antiviral activity (in words)” value was “inactive”.
Consider `CC1(C)[C@@H](OC(=O)CCC(=O)O)CC[C@]2(C)[C@H]3C(=O)C=C4[C@@H]5C[C@@](C)(C(=O)O)CC[C@]5(C)CC[C@@]4(C)[C@]3(C)CC[C@@H]12` [CBX, carbenoxolone, reference compound], for which the “cytotoxicity (in words)” value in the data set on MDCK cells was “toxic at low concentrations”. The CC50 in “in vitro” was found to be 17.8 ± 2.3 µM. Moreover, the “antiviral activity (in words)” value with influenza A H3N2 virus is given as “did not show any antiviral activity at nontoxic concentrations”.
On to `CC1(C)C(SCCS[C@@H]2O[C@H](C(=O)O)[C@@H](O)[C@H](O)[C@H]2O)C=C[C@@]2(C)C1CC[C@]1(C)C2C(=O)C=C2[C@@H]3C[C@@](C)(C(=O)O)CC[C@]3(C)CC[C@]21C` (some centres unmarked) [Compound 23], for which the “cytotoxicity (in words)” value with MDCK cells is “no cytotoxicity at the concentrations tested”. In addition, the CC50 in the data set “in vitro” was > 250 µM. The IC50 with influenza A H3N2 virus stood at 54 ± 13 µM.

For orientation: CC50 means the concentration at which the toxic effect on the cells reaches its halfway point. The low end stands for greater toxicity to the cells, the high end for lower toxicity to the cells.
